In patent publication US6737383B1, “Herbicidal oxadiazolidines” (priority 1999, dated 2004):

Columns and labels:
blackgrass = experiment: Test B pre/postemergence blackgrass; format: in vivo, Alopecurus myosuroides; details: Preemergence; for Plant response rating, Blackgrass: Rate 125 g/ha
How it was run: (§1)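 Test chemicals in a non-phytotoxic solvent mixture with surfactant were sprayed preemergence onto planted seeds and postemergence onto plants 2 to 18 cm tall (1- to 4-leaf stage). After twelve to sixteen days in a greenhouse, injury was visually rated against untreated controls from 0 (no effect) to 10 (complete control).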

pigweed = experiment: Test B pre/postemergence pigweed; format: in vivo, Amaranthus retroflexus; details: Preemergence; for Plant response rating, Redroot pigweed: Rate 125 g/ha
How it was run: as §1

rape = experiment: Test B pre/postemergence rape; format: in vivo, Brassica napus; details: Preemergence; for Plant response rating, Rape: Rate 125 g/ha
How it was run: as §1

crabgrass = experiment: Test B pre/postemergence crabgrass; format: in vivo, Digitaria sanguinalis; details: Preemergence; for Plant response rating, Crabgrass: Rate 125 g/ha
How it was run: as §1

wild oat = experiment: Test B pre/postemergence wild oat; format: in vivo, Avena fatua; details: Preemergence; for Plant response rating, Wild oats: Rate 125 g/ha
How it was run: as §1

sugar beet = experiment: Test B pre/postemergence sugar beet; format: in vivo, Beta vulgaris; details: Preemergence; for Plant response rating, Sugarbeets: Rate 125 g/ha
How it was run: as §1

cocklebur = experiment: Test B pre/postemergence cocklebur; format: in vivo, Xanthium strumarium; details: Preemergence; for Plant response rating, Cocklebur: Rate 125 g/ha
How it was run: as §1

morningglory = experiment: Test B pre/postemergence morningglory; format: in vivo, Ipomoea hederacea; details: Preemergence; for Plant response rating, Morningglory: Rate 125 g/ha
How it was run: as §1

surinam grass = experiment: Test B pre/postemergence surinam grass; format: in vivo, Brachiaria decumbens; details: Preemergence; for Plant response rating, B. signalgrass: Rate 125 g/ha
How it was run: as §1

purple nutsedge = experiment: Test B pre/postemergence purple nutsedge; format: in vivo, Cyperus rotundus; details: Preemergence; for Plant response rating, Nutsedge: Rate 125 g/ha
How it was run: as §1

wheat = experiment: Test B pre/postemergence wheat; format: in vivo, Triticum aestivum; details: Preemergence; for Plant response rating, Wheat: Rate 125 g/ha
How it was run: as §1

corn = experiment: Test B pre/postemergence corn; format: in vivo, Zea mays; details: Preemergence; for Plant response rating, Corn: Rate 125 g/ha
How it was run: as §1

soybean = experiment: Test B pre/postemergence soybean; format: in vivo, Glycine max; details: Preemergence; for Plant response rating, Soybean: Rate 125 g/ha
How it was run: as §1

bedstraw = experiment: Test B pre/postemergence bedstraw; format: in vivo, Galium aparine; details: Preemergence; for Plant response rating, Bedstraw: Rate 125 g/ha
How it was run: as §1

giant foxtail = experiment: Test B pre/postemergence giant foxtail; format: in vivo, Setaria faberii; details: Preemergence; for Plant response rating, Giant foxtail: Rate 125 g/ha
How it was run: as §1

velvetleaf = experiment: Test B pre/postemergence velvetleaf; format: in vivo, Abutilon theophrasti; details: Preemergence; for Plant response rating, Velvetleaf: Rate 125 g/ha
How it was run: as §1

[1] = Rate 62 g/ha, scale of 0 to 10 where 0 is no effect and 10 is complete control
[2] = scale of 0 to 10 where 0 is no effect and 10 is complete control
[3] = Rate 250 g/ha, scale 0 (no effect) to 10 (complete control)
[4] = Rate 500 g/ha, scale 0 to 10 (0 no effect, 10 complete control)

CC(C)N(C(=O)n1oc(=O)n(CCC(=O)N(C)C)c1=O)c1ccc(Cl)cc1 [Compound 719]
Blackgrass plant response rating (blackgrass; [1]): 6
Plant response rating, Blackgrass (blackgrass; [2]): 8
Blackgrass plant response rating (blackgrass; [3]): 9
Blackgrass plant response rating (blackgrass; [4]): 10
Redroot pigweed plant response rating (pigweed; [1]): 7
Plant response rating, Redroot pigweed (pigweed; [2]): 7
Redroot pigweed plant response rating (pigweed; [3]): 10
Redroot pigweed plant response rating (pigweed; [4]): 10
Rape plant response rating (rape; [1]): 0
Plant response rating, Rape (rape; [2]): 0
Rape plant response rating (rape; [3]): 2
Rape plant response rating (rape; [4]): 6
Plant response rating, Crabgrass (crabgrass; [2]): 3
Crabgrass plant response rating (crabgrass; [3]): 8
Crabgrass plant response rating (crabgrass; [4]): 9
Wild oats plant response rating (wild oat; [1]): 2
Plant response rating, Wild oats (wild oat; [2]): 6
Wild oats plant response rating (wild oat; [3]): 9
Wild oats plant response rating (wild oat; [4]): 9
Sugarbeets plant response rating (sugar beet; [1]): 4
Plant response rating, Sugarbeets (sugar beet; [2]): 4
Sugarbeets plant response rating (sugar beet; [3]): 6
Sugarbeets plant response rating (sugar beet; [4]): 8
Cocklebur plant response rating (cocklebur; [1]): 0
Plant response rating, Cocklebur (cocklebur; [2]): 0
Cocklebur plant response rating (cocklebur; [3]): 0
Cocklebur plant response rating (cocklebur; [4]): 0
Morningglory plant response rating (morningglory; [1]): 0
Plant response rating, Morningglory (morningglory; [2]): 1
Morningglory plant response rating (morningglory; [3]): 3
Morningglory plant response rating (morningglory; [4]): 3
B. signalgrass plant response rating (surinam grass; [1]): 3
Plant response rating, B. signalgrass (surinam grass; [2]): 7
B. signalgrass plant response rating (surinam grass; [3]): 7
B. signalgrass plant response rating (surinam grass; [4]): 9
Nutsedge plant response rating (purple nutsedge; [1]): 0
Plant response rating, Nutsedge (purple nutsedge; [2]): 0
Nutsedge plant response rating (purple nutsedge; [3]): 0
Nutsedge plant response rating (purple nutsedge; [4]): 0
Wheat plant response rating (wheat; [1]): 0
Plant response rating, Wheat (wheat; [2]): 0
Wheat plant response rating (wheat; [3]): 3
Wheat plant response rating (wheat; [4]): 5
Corn plant response rating (corn; [1]): 0
Plant response rating, Corn (corn; [2]): 0
Corn plant response rating (corn; [3]): 0
Corn plant response rating (corn; [4]): 5
Soybean plant response rating (soybean; [1]): 0
Plant response rating, Soybean (soybean; [2]): 0
Soybean plant response rating (soybean; [3]): 0
Soybean plant response rating (soybean; [4]): 0
Bedstraw plant response rating (bedstraw; [1]): 0
Plant response rating, Bedstraw (bedstraw; [2]): 0
Bedstraw plant response rating (bedstraw; [3]): 0
Bedstraw plant response rating (bedstraw; [4]): 0
Plant response rating, Giant foxtail (giant foxtail; [2]): 5
Giant foxtail plant response rating (giant foxtail; [3]): 8
Giant foxtail plant response rating (giant foxtail; [4]): 10
Velvetleaf plant response rating (velvetleaf; [1]): 0
Plant response rating, Velvetleaf (velvetleaf; [2]): 0
Velvetleaf plant response rating (velvetleaf; [3]): 0
Velvetleaf plant response rating (velvetleaf; [4]): 0

COCC(OC)n1c(=O)on(C(=O)N(c2ccc(Cl)cc2)C(C)C)c1=O (stereo not drawn) [Compound 726]
Blackgrass plant response rating (blackgrass; [1]): 7
Plant response rating, Blackgrass (blackgrass; [2]): 8
Blackgrass plant response rating (blackgrass; [3]): 8
Blackgrass plant response rating (blackgrass; [4]): 9
Redroot pigweed plant response rating (pigweed; [1]): 0
Plant response rating, Redroot pigweed (pigweed; [2]): 4
Redroot pigweed plant response rating (pigweed; [3]): 7
Redroot pigweed plant response rating (pigweed; [4]): 8
Rape plant response rating (rape; [1]): 0
Plant response rating, Rape (rape; [2]): 0
Rape plant response rating (rape; [3]): 0
Rape plant response rating (rape; [4]): 7
Crabgrass plant response rating (crabgrass; [1]): 9
Plant response rating, Crabgrass (crabgrass; [2]): 9
Crabgrass plant response rating (crabgrass; [3]): 9
Crabgrass plant response rating (crabgrass; [4]): 10
Wild oats plant response rating (wild oat; [1]): 1
Plant response rating, Wild oats (wild oat; [2]): 7
Wild oats plant response rating (wild oat; [3]): 8
Wild oats plant response rating (wild oat; [4]): 9
Sugarbeets plant response rating (sugar beet; [1]): 0
Plant response rating, Sugarbeets (sugar beet; [2]): 0
Sugarbeets plant response rating (sugar beet; [3]): 5
Sugarbeets plant response rating (sugar beet; [4]): 5
Cocklebur plant response rating (cocklebur; [1]): 0
Plant response rating, Cocklebur (cocklebur; [2]): 0
Cocklebur plant response rating (cocklebur; [3]): 0
Cocklebur plant response rating (cocklebur; [4]): 0
Morningglory plant response rating (morningglory; [1]): 0
Plant response rating, Morningglory (morningglory; [2]): 0
Morningglory plant response rating (morningglory; [3]): 1
Morningglory plant response rating (morningglory; [4]): 1
B. signalgrass plant response rating (surinam grass; [1]): 4
Plant response rating, B. signalgrass (surinam grass; [2]): 7
B. signalgrass plant response rating (surinam grass; [3]): 7
B. signalgrass plant response rating (surinam grass; [4]): 9
Nutsedge plant response rating (purple nutsedge; [1]): 0
Plant response rating, Nutsedge (purple nutsedge; [2]): 0
Nutsedge plant response rating (purple nutsedge; [3]): 0
Nutsedge plant response rating (purple nutsedge; [4]): 0
Wheat plant response rating (wheat; [1]): 0
Plant response rating, Wheat (wheat; [2]): 0
Wheat plant response rating (wheat; [3]): 0
Wheat plant response rating (wheat; [4]): 0
Corn plant response rating (corn; [1]): 0
Plant response rating, Corn (corn; [2]): 0
Corn plant response rating (corn; [3]): 0
Corn plant response rating (corn; [4]): 2
Soybean plant response rating (soybean; [1]): 0
Plant response rating, Soybean (soybean; [2]): 0
Soybean plant response rating (soybean; [3]): 0
Soybean plant response rating (soybean; [4]): 0
Bedstraw plant response rating (bedstraw; [1]): 0
Plant response rating, Bedstraw (bedstraw; [2]): 0
Bedstraw plant response rating (bedstraw; [3]): 0
Bedstraw plant response rating (bedstraw; [4]): 0
Giant foxtail plant response rating (giant foxtail; [1]): 9
Plant response rating, Giant foxtail (giant foxtail; [2]): 9
Giant foxtail plant response rating (giant foxtail; [3]): 10
Giant foxtail plant response rating (giant foxtail; [4]): 10
Velvetleaf plant response rating (velvetleaf; [1]): 0
Plant response rating, Velvetleaf (velvetleaf; [2]): 0
Velvetleaf plant response rating (velvetleaf; [3]): 0
Velvetleaf plant response rating (velvetleaf; [4]): 0
